Reference: patent US20220105108A1, “PERIVASCULAR ANTI-INFLAMMATORY THERAPY FOR VENOUS THROMBOSIS” (Mercator MedSystems, Inc., priority 2020, published 2022)
Where two headings read alike, the source gives them in different places.

Legend:
[1] = DANCE-Pilot study and DANCE trial: adventitial dexamethasone after femoropopliteal revascularization; format: in vivo, human; conditions: for Rate of CD-TLR: 12 months; for transient hyperglycemia event: controlled with insulin
From the text: Provided herein are examples of in vivo human clinical trials using the Bullfrog Micro-Infusion Device for local delivery of dexamethasone. The Bullfrog Micro-Infusion Device was successfully used in the DANCE (Dexamethasone to the Adventitia to Enhance Clinical Efficacy After Femoropopliteal Revascularization)-Pilot study and the DANCE trial in superficial femoral and popliteal arteries.
In the DANCE-Pilot study, 20 subjects were enrolled and treated with the Bullfrog device delivery of dexamethasone sodium phosphate. In the DANCE trial, 283 limbs were enrolled and treated with the Bullfrog device delivery of dexamethasone sodium phosphate. In 3.3% of the subjects enrolled in DANCE, there was no detected contrast medium distribution in the adventitia and perivascular tissues. In one subject in DANCE-Pilot and one subject in DANCE, there was a transient hyperglycemia event reported, which was treated and controlled with insulin therapy. There were no other unexpected adverse device events or suspected unexpected severe adverse reactions reported in the study.
The single-arm DANCE (Dexamethasone to the Adventitia to Enhance Clinical Efficacy After Femoropopliteal Revascularization) trial enrolled 262 subjects (283 limbs) with symptomatic peripheral artery disease (Rutherford category 2 to 4) receiving percutaneous transluminal angioplasty (PTA) (n=124) or atherectomy (ATX) (n=159) in femoropopliteal lesions <15 cm in length. A mixture of dexamethasone/contrast medium (80%/20%) was delivered to the adventitia and perivascular tissues surrounding target lesions in all subjects. Thirty-day assessments included major adverse limb events (MALE) and post-operative death. Twelve-month assessments included primary patency, freedom from clinically driven target lesion revascularization (CD-TLR), Rutherford scoring, and walking impairment questionnaire. […] In the secondary analysis, both the ATX and PTA DANCE groups were noninferior to the 72.3% contemporary performance goal, whether examining the PP (P<0.001 and P<0.004, respectively) or ITT (P<0.002 and P<0.005, respectively) population.

[2] = 10 mg equivalent dexamethasone phosphate in 3 ml, after angioplasty, 14 days
Description: A first study was designed to compare a high dose of dexamethasone (10 mg equivalent dose of dexamethasone phosphate) delivered in 3 ml volume to the perivascular tissue of porcine AV grafts (6 mm ringed PTFE) implanted between femoral artery and femoral vein pairs, bilaterally. Fourteen days after graft implantation, percutaneous transluminal angioplasty (PTA) was performed (7 mm balloon, 16 atmosphere inflation pressure) at two sites per graft: across the graft-vein anastomosis (GVA) and in the proximal vein (PV). Perivascular infusion of either dexamethasone (6 grafts) or placebo (2 grafts) was administered following the PTA procedure. Infusions of 3m1 were always consistent between the 2 grafts in each animal. Animals were euthanized 14 days after the treatment procedure and the graft-vein anastomosis and proximal vein were analyzed by histopathology and histomorphometry to determine adverse effects from the high dose of dexamethasone. The study was not powered to identify differences in stenosis but rather was aimed at determining dexamethasone local toxicity.

[3] = in vivo
Description: (§1) A second study was designed to assess the local toxicity of dexamethasone administered via the Bullfrog Micro-Infusion Device in a swine model. The following objectives were met in the study: In each of four subjects, confirmation of the safety of up to 16 mg dexamethasone delivered to the adventitia and perivascular tissue of each of 4 peripheral arteries and 6.4 mg dexamethasone delivered to the adventitia and perivascular tissue of each of 3 coronary arteries (at 3.2 mg/mL with 20% contrast), as compared to normal untreated tissue in two untreated subjects by clinical pathology and histopathology examination, at 28±3 days.

P-selectin = conditions: cited from earlier work
vWF = conditions: at 24 hours and 48 hours with dexamethasone treatment; cited from earlier work
[4] = Local toxicity of dexamethasone administered via Bullfrog device to peripheral and coronary arteries in swine; conditions: 28±3 days
Description: as §1

SMILES: C[C@@H]1C[C@H]2[C@@H]3CCC4=CC(=O)C=C[C@]4(C)[C@@]3(F)[C@@H](O)C[C@]2(C)[C@@]1(O)C(=O)CO [dexamethasone, 9-fluoro-11(beta),17,21-trihydroxy-16(alpha)-methylpregna-1,4-diene-3,20-dione]
- 30-day MALE+post-operative death events ([1]; DANCE trial): no 30-day MALE+post-operative death events
- Rate of CD-TLR ([1]; DANCE-ATX, ITT): 13.1%
- primary patency rate at 12 months ([1]; DANCE-ATX, intent-to-treat): 74.8%
- primary patency rate at 12 months ([1]; DANCE-ATX, per-protocol): 78.4%
- Rate of CD-TLR ([1]; DANCE-ATX, per-protocol): 10.0%
- Rate of CD-TLR ([1]; DANCE-PTA, ITT): 13.7%
- primary patency rate at 12 months ([1]; DANCE-PTA, intent-to-treat): 74.3%
- primary patency rate at 12 months ([1]; DANCE-PTA, per-protocol): 75.5%
- Rate of CD-TLR ([1]; DANCE-PTA, per-protocol): 11.0%
- dose-limiting toxicity ([1]; in vivo): No dose-limiting toxicity
- histopathology findings of femoral GVA vs perivascular placebo [2]: no differences
- adverse or toxicologically meaningful changes in the treated vessels [3]: no adverse or toxicologically meaningful changes
- P-selectin, time of elevation (P-selectin; dexamethasone treatment): 48 h
- P-selectin levels (P-selectin; high dose 1 mg/kg bid×2 days, healthy males): induced elevated P-selectin levels
- P-selectin levels (P-selectin; low dose 0.04 mg/kg bid×2 days): did not induce elevated P-selectin levels
- vWF (vWF): elevated
- gross necropsy, injury to the treatment areas [4]: no evidence of injury
- local toxicity to the treated vessels (microscopic evaluation) [4]: no evidence of local toxicity
- local vascular irritation upon injection [4]: no evidence of local vascular irritation
- peripheral organs abnormalities associated with test article [4]: did not reveal any abnormalities
- thrombosis or stenosis of treated vessels [4]: no evidence of thrombosis or stenosis
- adverse postoperative events leading to early death ([4]; up to 83.2 mg per subject): None of the animals

SMILES: C[C@@H]1C[C@H]2[C@@H]3CCC4=CC(=O)C=C[C@]4(C)[C@@]3(F)[C@@H](O)C[C@]2(C)[C@@]1(O)C(=O)COP(=O)(O)O [dexamethasone sodium phosphate]
- other unexpected adverse device events or suspected unexpected severe adverse reactions ([1]; DANCE-Pilot and DANCE): no other
- transient hyperglycemia event ([1]; DANCE-Pilot, 20 subjects): one subject
- transient hyperglycemia event ([1]; DANCE): one subject
